In patent US10227281B2, “Preparation of 2,6- and 2,7-disubstituted anthraquinone derivates” (BASF SE, priority 2014, dated 2019):
Values after ≈ are worked out from the molar mass of the structure shown.

Assays:
[1] = Solubility of the anthrahydroquinone from the amount of absorbed hydrogen until precipitation; assay type: physicochemical; conditions: hydroquinone form, equivolume mixture of xylene and diisobutylcarbinol, 30° C.
Description: 5 g of the anthraquinone derivative obtained from Example 4 were dissolved in an equivolume mixture of xylene and diisobutylcarbinol at 30° C. to obtain 100 ml of an anthraquinone solution. 2 g of a palladium catalyst on alumina was added to 50 ml of the anthraquinone solution and then the solution was made to absorb the theoretical amount of hydrogen at 30° C. The obtained solution has been left untouched for 15 h to thoroughly precipitate the excess of anthrahydroquinone. After the catalyst and the precipitate have been separated by filtration under a current of nitrogen, the resulting solution was stirred under air in order to oxidize the anthrahydroquinone back to the corresponding anthraquinone. The produced hydrogen peroxide was extracted with water. After the extraction of the hydrogen peroxide was completed, 25 mL of the working solution were further submitted to subsequent hydrogenation at 30° C. as described above until a state of saturation was reached.

[2] = Determination of the solubility of anthraquinone derivatives in xylene/diisobutylcarbinol; conditions: for Solubility in the solvent system used (in words): xylene/diisobutylcarbinol solvent system, comparison of the derivatives
[3] = mixture of xylene (50 volume-%) and diisobutylcarbinol (50 volume-%), 22° C., quinone form

Compound | Solubility of the anthrahydroquinone [1] | Solubility [2, 3] | Solubility in the solvent system used (in words) [2] | Solubility ([2]; xylene/diisobutylcarbinol mixture (50:50 by volume))
CCc1ccc2c(c1)C(=O)c1ccccc1C2=O [2-ethylanthraquinone] | – | – | only poorly soluble | –
2,6-bis(4-methylpent-3-enyl)anthracene-9,10-dione and 2,7-bis(4-methylpent-3-enyl)anthracene-9,10-dione [Example 1] | – | 770 mM | – | –
CC(C)=CCc1ccc2c(c1)C(=O)c1ccccc1C2=O [Comparative Example 1, 2-(3-methylbut-2-en-1-yl)anthracene-9,10-dione] | – | – | – | 770 mM (≈ 213 mg/mL)

The next lines start with the values.

Solubility of the anthrahydroquinone [1] | Solubility [2, 3] | Solubility in the solvent system used (in words) [2] | Solubility ([2]; xylene/diisobutylcarbinol mixture (50:50 by volume)) | Compound
1010 mM | 1610 mM | highest solubility | – | 2,6-diisohexylanthracene-9,10-dione and 2,7-diisohexylanthracene-9,10-dione [Example 4]
– | Insoluble | insoluble | – | Cc1cc2c(cc1C)C(=O)c1cc(C)c(C)cc1C2=O [Comparative Example 3, 2,3,6,7-tetramethylanthracene-9,10-dione]
